In patent US20260234099A1, “Endocannabinoid ligands and related analogs” (Northeastern University, priority 2023, published 2026):
Read-outs that look alike come from different tables or passages of the source.

Columns and labels:
[1] = target: T1, CB2 receptor (Homo sapiens, UniProt P34972); test: GTPγ-S binding assay, CB2; format: biochemical
Experimental: The activity of some of the disclosed compounds for the CB1 and CB2 receptors was assessed by using the GTPγ-S binding assay (Tables 2,3,4). As used herein the “effect” of the compound on the GTPγ-S assay is represented by the EC50 (GTP) value. The lower the EC50 (GTP) value the higher the potency of the compound for the receptor A detailed description of the methods used to test compounds using the GTPγ-S assay is given in Parkkari, et al., Biorg. Med. Chem. Letters 2006, 16(9), 2437 and Griffin, et al., J. Pharmacol. Exp. Ther. 1998, 285(2), 553-560 the content of which is hereby incorporated by reference.

[2] = target: CB2 receptor (hCB2) (Homo sapiens, UniProt P34972); test: cAMP assay (inhibition of FSK stimulated cAMP), CB2; format: cell-based
Experimental: FIG. 2A is a graph providing data of the % inhibition of FSK stimulated cAMP for compound 6.1.1 for hCB2.
Further functional characterization of some of the disclosed compounds tested initially for “binding affinity” or for GTPγ-S binding was performed by using the cyclic adenosine monophosphate (cAMP) assay. Key compounds initially characterized functionally using the GTPγ-S assay were also doubly tested using the cAMP assay to unambiguously confirm their functional profiles. The functional potency of the compounds tested using the cyclase assay is also represented by the EC50 (cAMP) value and similarly the lower the EC50 (cAMP) value the higher the potency of the compound for the receptor. A detailed description of the methods used to test compounds using the cAMP assay is given in Yingpeng, et al. J. Med. Chem. (2018) 61, 8639-8657 the content of which is hereby incorporated by reference. The EC50 values (potency of a test compound) of the functional assays may or may not be accompanied by the E(max) value in tables 1-5 (efficacy of the test compound). E(max)/efficacy is the maximum GTP stimulation or cAMP inhibition levels and is presented as the percentage of maximum response evoked by a standard CB1/CB2 full agonist (e.g., CP-55,940) for reference see the paper cited above. If a test compound has an efficacy close to 100% of the standard full agonist, then the test compound is also classified as full agonist.

[3] = target: T2, CB1 receptor (Rattus norvegicus, UniProt P20272); test: CB1 receptor binding affinity (Ki)
Experimental: (§1) Some disclosed compounds were tested for CB1 and CB2 receptor binding affinity (Tables 1, 2, 3, 4, 5). As used herein “binding affinity” is represented by the Ki value. The Ki value is the affinity constant and describes the affinity of the compound for the receptor. […] A detailed description of the methods used to test “binding affinity” of compounds is given in Makriyannis, et al., US 2007/0135388 the content of which is hereby incorporated by reference.

[4] = target: T1, CB2 receptor; test: CB2 receptor binding affinity (Ki); set-up: CB2 receptor Ki; CB2 receptor Ki (PMSF); other: with PMSF; settings: read-out: CB2 receptor Ki
Experimental: as §1

[5] = target: CB1 receptor (rCB1) (Rattus norvegicus, UniProt P20272); test: cAMP assay (inhibition of FSK stimulated cAMP), CB1; format: cell-based
Experimental: Further functional characterization of some of the disclosed compounds tested initially for “binding affinity” or for GTPγ-S binding was performed by using the cyclic adenosine monophosphate (cAMP) assay. […] A detailed description of the methods used to test compounds using the cAMP assay is given in Yingpeng, et al. J. Med. Chem. (2018) 61, 8639-8657 the content of which is hereby incorporated by reference. The EC50 values (potency of a test compound) of the functional assays may or may not be accompanied by the E(max) value in tables 1-5 (efficacy of the test compound). E(max)/efficacy is the maximum GTP stimulation or cAMP inhibition levels and is presented as the percentage of maximum response evoked by a standard CB1/CB2 full agonist (e.g., CP-55,940) for reference see the paper cited above.

[6] = target: T1, CB2 receptor; test: hCB2 receptor binding affinity (Ki), Table 7
Experimental: Some disclosed compounds were tested for CB1 and CB2 receptor binding affinity (Tables 1, 2, 3, 4, 5). As used herein “binding affinity” is represented by the Ki value. The Ki value is the affinity constant and describes the affinity of the compound for the receptor. The lower the Ki value, the higher the affinity of the compound for the receptor. A detailed description of the methods used to test “binding affinity” of compounds is given in Makriyannis, et al., US 2007/0135388 the content of which is hereby incorporated by reference.

[7] = target: T2, CB1 receptor; test: GTPγ-S binding assay, CB1; format: biochemical; settings: class symbols; read-out: EC50 (GTP) CB1 receptor
Experimental: The activity of some of the disclosed compounds for the CB1 and CB2 receptors was assessed by using the GTPγ-S binding assay (Tables 2,3,4). As used herein the “effect” of the compound on the GTPγ-S assay is represented by the EC50 (GTP) value. […] Med. Chem. Letters 2006, 16(9), 2437 and Griffin, et al., J. Pharmacol. Exp. Ther. 1998, 285(2), 553-560 the content of which is hereby incorporated by reference.

[8] = target: T1, CB2 receptor; test: CB2 receptor binding affinity (Ki); set-up: CB2 receptor Ki
Experimental: as §1

[9] = with PMSF, read-out: CB1 Receptor Ki with PMSF
[10] = without PMSF, read-out: CB1 receptor affinity Ki
[11] = percentage of maximum response of standard full agonist (e.g., CP-55,940)

T2 sequence (P20272 whole entry): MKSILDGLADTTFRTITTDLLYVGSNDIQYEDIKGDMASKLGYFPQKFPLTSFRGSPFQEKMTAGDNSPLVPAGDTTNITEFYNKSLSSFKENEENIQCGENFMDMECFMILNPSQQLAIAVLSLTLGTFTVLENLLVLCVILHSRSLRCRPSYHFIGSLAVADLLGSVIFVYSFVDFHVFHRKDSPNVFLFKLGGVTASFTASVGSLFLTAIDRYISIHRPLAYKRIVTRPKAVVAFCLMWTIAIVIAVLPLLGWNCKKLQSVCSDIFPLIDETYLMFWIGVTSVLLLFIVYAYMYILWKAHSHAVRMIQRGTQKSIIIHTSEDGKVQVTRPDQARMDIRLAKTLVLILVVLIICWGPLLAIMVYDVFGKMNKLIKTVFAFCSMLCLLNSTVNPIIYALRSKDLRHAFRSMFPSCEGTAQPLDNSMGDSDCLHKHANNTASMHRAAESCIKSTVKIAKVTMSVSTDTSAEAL
Chain of CB1 receptor (rCB1) (P20272 whole entry): as above
T1 sequence (P34972 whole entry): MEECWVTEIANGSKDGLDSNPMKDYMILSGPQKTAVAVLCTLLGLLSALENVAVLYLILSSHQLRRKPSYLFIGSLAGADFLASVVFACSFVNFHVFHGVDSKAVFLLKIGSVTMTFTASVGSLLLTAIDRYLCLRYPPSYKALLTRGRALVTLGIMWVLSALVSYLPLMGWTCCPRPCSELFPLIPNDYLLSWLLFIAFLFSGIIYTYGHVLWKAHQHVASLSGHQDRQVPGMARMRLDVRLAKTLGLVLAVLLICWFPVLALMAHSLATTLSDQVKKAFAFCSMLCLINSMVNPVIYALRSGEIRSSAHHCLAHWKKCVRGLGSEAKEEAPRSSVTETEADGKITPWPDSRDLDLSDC
Chain of CB2 receptor (hCB2) (P34972 whole entry): as above

Row | Structure (SMILES) | Ki [3, 9] [nM] | Ki [3, 10] [nM] | Ki [4] [nM] | EC50 [7] [nM] | other results
1 | CCCCC/C=C\C/C=C\C/C=C\C/C=C\CCCC(=O)OC(CO)CO [Compound 2-AG, 2-arachidonoylglycerol, reference compound] |  |  |  |  | EC50 ([1]; class symbols, read-out: EC50 (GTP) CB2 receptor): 200 to 1000 nM; EC50 ([2]; class symbols): 10 to 200 nM
2 | C[C@H](/C=C\C/C=C\C/C=C\CCCC(=O)N[C@H](C)CO)/C=C\CCCCCC#N [Compound 4.1.5a, (S,5Z,8Z,11Z,14Z)-20-Cyano-N—((R)-1-hydroxypropan-2-yl)-13-methylicosa-5,8,11,14-tetraenamide] | 0.01 to 10 | 0.01 to 10 | 0.01 to 10 |  | functional profile at CB1 (cAMP) ([5]; full or partial agonist): partial agonist; EC50 ([5]; numeric): 8.7 nM; Emax [5, 11]: 76%
3 | C[C@H](/C=C\C/C=C\C/C=C\CCCC(=O)N[C@H](C)CO)/C=C\CCCCC(F)(F)F [Compound 4.1.5c] |  |  |  |  | Ki [6]: 3.6 nM; fold higher binding affinity for CB2 compared to AM 356 ([6]; vs AM 356): 61 fold; fold higher binding affinity for CB2 compared to AMG 315 ([6]; vs AMG 315): 49 fold
4 | CCCCC/C=C\C/C=C\C/C=C\[C@H](C)/C=C\CCCC(=O)OC(CO)CO [Compound 5.4.3a, 1,3-Dihydroxypropan-2-yl (R,5Z,8Z,11Z,14Z)-7-methylicosa-5,8,11,14-tetraenoate] |  |  |  | > 1000 | EC50 [1]: 200 to 1000 nM
5 | CCCCC/C=C\C/C=C\C/C=C\C/C=C\COC(C)C(=O)OC(CO)CO (centres unmarked) [Compound 5.3.3, 1,3-Dihydroxypropan-2-yl 2-(((2Z,5Z,8Z,11Z)-heptadeca-2,5,8,11-tetraen-1-yl)oxy)propanoate] |  |  |  | > 1000 | 
6 | CCCCC/C=C\[C@H](C)/C=C\C/C=C\C/C=C\CCCCNC(=O)COC [Compound 6.1.1, 2-Methoxy-N—((S,5Z,8Z,11Z,14Z)-13-methylicosa-5,8,11,14-tetraen-1-yl)acetamide] |  | 0.01 to 10 |  |  | Ki [8]: 0.01 to 10 nM; functional profile at CB2 (cAMP) ([2]; full or partial agonist): partial agonist; EC50 ([2]; numeric): 1.2 nM; Emax [2, 11]: 40%
7 | CCCCC/C=C\C/C=C\C/C=C\[C@@H](C)/C=C\CCCC(=O)OC(CO)CO [Compound 5.4.3b, 1,3-Dihydroxypropan-2-yl (S,5Z,8Z,11Z,14Z)-7-methylicosa-5,8,11,14-tetraenoate] |  |  |  | > 1000 | EC50 [1]: > 1000 nM
8 | C[C@H](/C=C\C/C=C\C/C=C\CCCC(=O)N[C@H](C)CO)/C=C\CCCCCF [Compound 4.7.4, (S,5Z,8Z,11Z,14Z)-20-Fluoro-N—((R)-1-hydroxypropan-2-yl)-13-methylicosa-5,8,11,14-tetraenamide] |  | 0.01 to 10 | 10 to 200 |  | 
9 | C[C@H](/C=C\C/C=C\C/C=C\CCCC(=O)N[C@H](C)CO)/C=C\CCCCCO[N+](=O)[O-] [Compound 4.1.5b, (S,6Z,9Z,12Z,15Z)-20-(((R)-1-Hydroxypropan-2-yl)amino)-8-methyl-20-oxoicosa-6,9,12,15-tetraen-1-yl Nitrate] | 0.01 to 10 | 0.01 to 10 | 10 to 200 |  | CB1 over CB2 preference ([3]; CB1 vs CB2, Tables 1 and 5): bind to and stimulate preferentially the CB1 receptors
10 | C[C@H](/C=C\C/C=C\C/C=C\CCCC(=O)N[C@H](C)CO)/C=C\CCCCCBr [Compound 4.1.4, (S,5Z,8Z,11Z,14Z)-20-Bromo-N—((R)-1-hydroxypropan-2-yl)-13-methylicosa-5,8,11,14-tetraenamide] | 0.01 to 10 | 0.01 to 10 | 0.01 to 10 |  | 
11 | C[C@H](/C=C\C/C=C\C/C=C\CCCC(=O)N[C@H](C)CO)/C=C\CCCCCOC1CCCCO1 (some centres unmarked) [Compound 4.1.3] | > 1000 | > 1000 | > 1000 |  | 
12 | CCCCC/C=C\C/C=C\C/C=C\C/C=C\C1CC[C@@H](C(=O)OC(CO)CO)C1 (some centres unmarked) [Compound 5.2.2e] |  |  |  | > 1000 | EC50 ([2]; class symbols): 200 to 1000 nM
